One assay concerns Achaea janata. The assay is described as follows: Antifeedant activity against fourth instar larvae of Achaea janata fed on compound treated castor leaves at 200 ppm after 24 hrs by leaf disc method. The assay is classed as functional, organism-based.
In a further assay the test system is Aspergillus niger. Briefly: Antifungal activity against Aspergillus niger at 50 ug/ml after 72 hrs by disc diffusion method. The class given is functional, organism-based.
Another assay relates to Penicillium. The assay is described as follows: Antifungal activity against Penicillium at 50 ug/ml after 72 hrs by disc diffusion method. The assay is classed as functional, organism-based. (Agar diffusion results depend on both activity and mobility in agar.)
The test system of a further assay is Candida albicans. Briefly: Antifungal activity against Candida albicans at 250 ug/ml after 72 hrs by disc diffusion method. The following applies: for zone of inhibition at 250 µg/mL: read-out: IZ. The assay is classed as functional.
Another assay relates to Enterococcus faecalis. Briefly: Antibacterial activity against Enterococcus faecalis at 250 ug/ml after 24 to 45 hrs by disc diffusion method. The class given is functional. The following applies: for zone of inhibition at 250 µg/mL: read-out: IZ.
In the next assay the test system is Proteus vulgaris. Briefly: Antibacterial activity against Proteus vulgaris at 250 ug/ml after 24 to 45 hrs by disc diffusion method. The class given is functional. As to conditions: read-out: IZ.
For another assay, the system named is Klebsiella pneumoniae. The assay is described as follows: Antibacterial activity against Klebsiella pneumoniae at 250 ug/ml after 24 to 45 hrs by disc diffusion method. The class given is functional. The following applies: read-out: IZ.
The subject of another assay is Pseudomonas. Briefly: Antibacterial activity against Pseudomonas at 250 ug/ml after 24 to 45 hrs by disc diffusion method. The following applies: read-out: IZ. The assay is classed as functional.
For another assay, the system named is Staphylococcus aureus. Briefly: Antibacterial activity against Staphylococcus aureus at 250 ug/ml after 24 to 45 hrs by disc diffusion method. The assay is classed as functional. As to conditions: read-out: IZ.
The test system of the next assay is Escherichia coli. Briefly: Antibacterial activity against Escherichia coli at 250 ug/ml after 24 to 45 hrs by disc diffusion method. The assay is classed as functional. The following applies: read-out: IZ.

Activity calls are given as the source filed them.

Turning to `O=C(c1ccccc1)c1cc(Cl)cc2c1N1Cc3cc(Cl)cc(C(=O)c4ccccc4)c3N(C2)C1`, the result with Achaea janata and in the assay on Aspergillus niger was Active. Moreover, the result with Penicillium and with Enterococcus faecalis was inactive. For the same compound, the zone of inhibition at 250 µg/mL in the assay with Candida albicans amounted to 20 mm; with Proteus vulgaris, 13 mm; in the assay with Klebsiella pneumoniae, 13 mm; in the assay with Pseudomonas, 13 mm; in the assay with Staphylococcus aureus it was 13 mm; in the assay on Escherichia coli, 13 mm.
As for `Cc1cc(Br)cc2c1N1Cc3cc(Br)cc(C)c3N(C2)C1`, the outcome with Achaea janata was Active. In addition, the result in the assay on Aspergillus niger and with Penicillium was inactive. Besides, the zone of inhibition at 250 µg/mL in the assay with Candida albicans is 8 mm; in the assay on Enterococcus faecalis, 13 mm; in the assay on Proteus vulgaris, 8 mm; in the assay with Klebsiella pneumoniae, 13 mm; in the assay on Pseudomonas it was 13 mm; in the assay with Staphylococcus aureus, 8 mm. In addition, in the assay on Escherichia coli, the zone of inhibition at 250 µg/mL stood at 8 mm.
As for `Cc1cc(Cl)cc2c1N1Cc3cc(Cl)cc(C)c3N(C2)C1`, the outcome with Achaea janata and in the assay on Penicillium was Active. Also, in the assay with Aspergillus niger, the result was inactive. For the same compound, the zone of inhibition at 250 µg/mL in the assay on Candida albicans was found to be 8 mm; with Enterococcus faecalis, 13 mm; in the assay on Proteus vulgaris, 8 mm; in the assay on Klebsiella pneumoniae, 13 mm; in the assay on Pseudomonas, 13 mm; in the assay on Staphylococcus aureus it was 8 mm. Moreover, the zone of inhibition at 250 µg/mL in the assay on Escherichia coli was determined as 8 mm.
As to `Cc1ccc2c(c1I)CN1CN2Cc2c1ccc(C)c2I`, the outcome in the assay on Achaea janata was Active. Besides, the result in the assay on Aspergillus niger and with Penicillium was inactive. Besides, the zone of inhibition at 250 µg/mL in the assay on Candida albicans turned out to be 13 mm; in the assay with Enterococcus faecalis it was 13 mm; with Proteus vulgaris, 8 mm; in the assay on Klebsiella pneumoniae, 13 mm; with Pseudomonas, 13 mm; with Staphylococcus aureus, 8 mm. Besides, in the assay on Escherichia coli, the zone of inhibition at 250 µg/mL worked out at 8 mm.
As to `Brc1ccc2c(c1)N1Cc3ccc(Br)cc3N(C2)C1`, the result in the assay on Achaea janata was Active. Besides, the outcome in the assay with Aspergillus niger, in the assay with Penicillium and with Enterococcus faecalis was inactive. In addition, the zone of inhibition at 250 µg/mL with Candida albicans is 8 mm; with Proteus vulgaris, 8 mm; in the assay with Klebsiella pneumoniae, 8 mm; in the assay with Pseudomonas it was 8 mm; in the assay with Staphylococcus aureus, 13 mm; with Escherichia coli, 8 mm.
On to `COc1ccc2c(c1Cl)CN1CN2Cc2c1ccc(OC)c2Cl`, for which the outcome in the assay on Achaea janata and in the assay on Penicillium was Active. For the same compound, the result with Aspergillus niger was inactive. The zone of inhibition at 250 µg/mL with Candida albicans is 20 mm; in the assay on Enterococcus faecalis, 13 mm; in the assay with Proteus vulgaris, 20 mm; with Klebsiella pneumoniae it was 20 mm; in the assay on Pseudomonas, 20 mm; in the assay with Staphylococcus aureus, 20 mm. Moreover, the zone of inhibition at 250 µg/mL in the assay on Escherichia coli came out at 20 mm.
`Brc1ccc2c(c1)CN1CN2Cc2cc(Br)ccc21`: the result in the assay on Achaea janata, with Aspergillus niger and with Penicillium was Active. In addition, the zone of inhibition at 250 µg/mL turned out to be 20 mm in the assay with Candida albicans; 20 mm in the assay with Enterococcus faecalis; 13 mm in the assay on Proteus vulgaris; 20 mm with Klebsiella pneumoniae; 13 mm in the assay on Pseudomonas; 20 mm with Staphylococcus aureus. In addition, the zone of inhibition at 250 µg/mL with Escherichia coli came out at 20 mm.
Turning to `Clc1cccc2c1CN1CN2Cc2c(Cl)cccc21`, the outcome in the assay with Achaea janata was Active. The result with Aspergillus niger and in the assay with Penicillium was inactive. The zone of inhibition at 250 µg/mL in the assay with Candida albicans stood at 8 mm; with Enterococcus faecalis, 13 mm; in the assay on Proteus vulgaris, 8 mm; with Klebsiella pneumoniae it was 8 mm; in the assay with Pseudomonas, 8 mm; in the assay on Staphylococcus aureus, 13 mm. Further, the zone of inhibition at 250 µg/mL in the assay on Escherichia coli was determined as 8 mm.
With `Cc1cc(F)c2c(c1)CN1CN2Cc2cc(C)cc(F)c21`, the result with Achaea janata was Active. The result with Aspergillus niger, in the assay on Penicillium and in the assay with Enterococcus faecalis was inactive. Also, the zone of inhibition at 250 µg/mL in the assay on Candida albicans amounted to 8 mm; in the assay with Proteus vulgaris, 13 mm; in the assay on Klebsiella pneumoniae it was 13 mm; in the assay with Pseudomonas it was 8 mm; in the assay with Staphylococcus aureus it was 13 mm; with Escherichia coli it was 13 mm.
In the case of `Fc1ccc2c(c1)CN1CN2Cc2cc(F)ccc21`, the result with Achaea janata was Active. Further, the result in the assay with Aspergillus niger, in the assay on Penicillium and in the assay on Enterococcus faecalis was inactive. Also, the zone of inhibition at 250 µg/mL came to 8 mm with Candida albicans; 13 mm in the assay with Proteus vulgaris; 13 mm with Klebsiella pneumoniae; 8 mm in the assay on Pseudomonas; 13 mm with Staphylococcus aureus; 13 mm in the assay on Escherichia coli.
Turning to `Brc1cccc2c1N1Cc3cccc(Br)c3N(C2)C1`, the outcome in the assay with Achaea janata was Active. The result in the assay on Aspergillus niger, in the assay on Penicillium, in the assay with Candida albicans and with Enterococcus faecalis was inactive. The zone of inhibition at 250 µg/mL in the assay with Proteus vulgaris amounted to 8 mm; with Klebsiella pneumoniae it was 8 mm; in the assay on Pseudomonas, 8 mm; in the assay with Staphylococcus aureus, 8 mm; in the assay with Escherichia coli, 13 mm.
For `Cc1ccc2c(c1Cl)CN1CN2Cc2c1ccc(C)c2Cl`, the outcome in the assay with Achaea janata was Active. Further, the outcome in the assay with Aspergillus niger and in the assay on Penicillium was inactive. Moreover, the zone of inhibition at 250 µg/mL came to 13 mm with Candida albicans; 8 mm in the assay on Enterococcus faecalis; 13 mm with Proteus vulgaris; 13 mm with Klebsiella pneumoniae; 13 mm with Pseudomonas; 13 mm in the assay with Staphylococcus aureus. Further, the zone of inhibition at 250 µg/mL in the assay on Escherichia coli stood at 13 mm.
Turning to `Cc1cc2c(cc1F)N1Cc3cc(C)c(F)cc3N(C2)C1`, the result in the assay on Achaea janata was Active. Further, the result in the assay with Aspergillus niger and in the assay with Penicillium was inactive. In addition, the zone of inhibition at 250 µg/mL was 13 mm with Candida albicans; 8 mm in the assay on Enterococcus faecalis; 13 mm in the assay with Proteus vulgaris; 13 mm in the assay with Klebsiella pneumoniae; 13 mm in the assay with Pseudomonas; 13 mm in the assay on Staphylococcus aureus. Also, the zone of inhibition at 250 µg/mL in the assay on Escherichia coli was 13 mm.
